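The compound was tested at five concentrations on cells cultured in 96-well plates, with a 48-hour exposure period. GI50: concentration for 50% inhibition of growth. TGI denotes the concentration required for complete inhibition of growth.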
Experiments:
Test in all cases: growth of human tumour cells (NCI), 48 h
[1] = system: MALME-3M melanoma
[2] = system: DU-145 prostate
[3] = system: OVCAR-3 ovarian
[4] = system: HOP-62 NSCLC
[5] = system: SK-MEL-28 melanoma
[6] = system: EKVX NSCLC
[7] = system: UACC-257 melanoma
[8] = system: SR leukemia
[9] = system: SNB-75 CNS
[10] = system: NCI-H522 lung
[11] = system: SF-295 CNS
[12] = system: MCF7 breast
[13] = system: OVCAR-5 ovarian
[14] = system: 786-0 renal
[15] = system: SF-539 CNS
[16] = system: CCRF-CEM leukemia
[17] = system: SNB-19 CNS
[18] = system: MDA-MB-468 breast
[19] = system: SK-OV-3 ovarian
[20] = system: ACHN renal
[21] = system: MDA-MB-231 breast
[22] = system: U251 CNS
[23] = system: SW-620 colon
[24] = system: HOP-92 NSCLC
[25] = system: KM12 colon
[26] = system: UO-31 renal
[27] = system: BT-549 breast
[28] = system: A498 renal
[29] = system: UACC-62 melanoma
[30] = system: LOX IMVI melanoma
[31] = system: RPMI-8226 leukemia
[32] = system: NCI-H460 lung
[33] = system: OVCAR-4 ovarian
[34] = system: HL-60(TB) leukemia
[35] = system: T-47D breast
[36] = system: MOLT-4 leukemia
[37] = system: NCI-H226 lung
[38] = system: A549 NSCLC
[39] = system: IGROV1 ovarian
[40] = system: PC-3 prostate
[41] = system: K-562 leukemia
[42] = system: OVCAR-8 ovarian
[43] = system: HCC-2998 colon
[44] = system: HCT-116 colon
[45] = system: HT29 colon
[46] = system: CAKI-1 renal
[47] = system: SN12C renal
[48] = system: NCI-H23 lung
[49] = system: COLO 205 colon
[50] = system: HCT-15 colon
[51] = system: RXF 393 renal
[52] = system: TK-10 renal
[53] = system: SF-268 CNS
[54] = system: SK-MEL-5 melanoma

Question: What does the source list for `COc1cccc(C(N)=Nc2ccc(OCCCCCCn3cncn3)cc2)c1`?
Answer: GI50 [1]: 1.57 µM; TGI [1]: > 100 µM; GI50 [2]: 3.05 µM; TGI [2]: 51.6 µM; GI50 [3]: 0.601 µM; TGI [3]: 3.36 µM; GI50 [4]: 4.13 µM; TGI [4]: > 100 µM; GI50 [5]: 4.6 µM; TGI [5]: > 100 µM; GI50 [6]: 2.92 µM; TGI [6]: > 100 µM; GI50 [7]: 8.67 µM; TGI [7]: > 100 µM; GI50 [8]: 0.537 µM; TGI [8]: > 100 µM; GI50 [9]: 1.91 µM; TGI [9]: > 100 µM; GI50 [10]: 1.08 µM; TGI [10]: 3.96 µM; GI50 [11]: 1.5 µM; TGI [11]: 30.7 µM; GI50 [12]: 0.465 µM; TGI [12]: > 100 µM; GI50 [13]: 3.18 µM; TGI [13]: > 100 µM; GI50 [14]: 0.628 µM; TGI [14]: > 100 µM; GI50 [15]: 1.61 µM; TGI [15]: 4.82 µM; GI50 [16]: 1.04 µM; TGI [16]: > 100 µM; GI50 [17]: 4.45 µM; TGI [17]: > 100 µM; GI50 [18]: 0.429 µM; TGI [18]: > 100 µM; GI50 [19]: 4.69 µM; TGI [19]: > 100 µM; GI50 [20]: 4.26 µM; TGI [20]: > 100 µM; GI50 [21]: 1.7 µM; TGI [21]: 57.6 µM; GI50 [22]: 3.61 µM; TGI [22]: > 100 µM; GI50 [23]: 0.537 µM; TGI [23]: > 100 µM; GI50 [24]: 4.13 µM; TGI [24]: > 100 µM; GI50 [25]: 1.54 µM; TGI [25]: > 100 µM; GI50 [26]: 4.51 µM; TGI [26]: > 100 µM; GI50 [27]: 0.957 µM; TGI [27]: > 100 µM; GI50 [28]: 26.1 µM; TGI [28]: > 100 µM; GI50 [29]: 2.06 µM; TGI [29]: > 100 µM; GI50 [30]: 2.78 µM; TGI [30]: > 100 µM; GI50 [31]: 2.82 µM; TGI [31]: > 100 µM; GI50 [32]: 1.18 µM; TGI [32]: 22.1 µM; GI50 [33]: 12.8 µM; TGI [33]: > 100 µM; GI50 [34]: 0.567 µM; TGI [34]: 42.9 µM; GI50 [35]: 3.32 µM; TGI [35]: > 100 µM; GI50 [36]: 3.19 µM; TGI [36]: > 100 µM; GI50 [37]: 2.67 µM; TGI [37]: 9.75 µM; GI50 [38]: 2.86 µM; TGI [38]: > 100 µM; GI50 [39]: 3.53 µM; TGI [39]: > 100 µM; GI50 [40]: 1.86 µM; TGI [40]: > 100 µM; GI50 [41]: 0.475 µM; TGI [41]: > 100 µM; GI50 [42]: 3.16 µM; TGI [42]: 28.1 µM; GI50 [43]: 2.78 µM; TGI [43]: > 100 µM; GI50 [44]: 0.439 µM; TGI [44]: > 100 µM; GI50 [45]: 1.23 µM; TGI [45]: 5.07 µM; GI50 [46]: 0.909 µM; TGI [46]: > 100 µM; GI50 [47]: 3.61 µM; TGI [47]: > 100 µM; GI50 [48]: 3.44 µM; TGI [48]: > 100 µM; GI50 [49]: 1.75 µM; TGI [49]: 10.3 µM; GI50 [50]: 2.43 µM; TGI [50]: > 100 µM; GI50 [51]: 2.3 µM; TGI [51]: > 100 µM; GI50 [52]: 6.48 µM; TGI [52]: > 100 µM; GI50 [53]: 4.3 µM; TGI [53]: 86.2 µM; GI50 [54]: 1.47 µM; TGI [54]: 10.2 µM
